Data as given in patent US6737383B1, “Herbicidal oxadiazolidines” (priority 1999, dated 2004).

How the values were obtained:
soybean = assay: Test B pre/postemergence soybean; format: in vivo, Glycine max; conditions: for Plant response rating, Soybean: Postemergence
Procedure, shortened: (§1)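 Test chemicals in a non-phytotoxic solvent mixture with surfactant were sprayed preemergence onto planted seeds and postemergence onto plants 2 to 18 cm tall (1- to 4-leaf stage). After twelve to sixteen days in a greenhouse, injury was visually rated against untreated controls from 0 (no effect) to 10 (complete control).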

wild oat = assay: Test B pre/postemergence wild oat; format: in vivo, Avena fatua; conditions: for Plant response rating, Wild oats: Postemergence
Procedure, shortened: as §1

morningglory = assay: Test B pre/postemergence morningglory; format: in vivo, Ipomoea hederacea
Procedure, shortened: as §1

giant foxtail = assay: Test B pre/postemergence giant foxtail; format: in vivo, Setaria faberii
Procedure, shortened: as §1

velvetleaf = assay: Test B pre/postemergence velvetleaf; format: in vivo, Abutilon theophrasti; conditions: for Plant response rating, Velvetleaf: Postemergence
Procedure, shortened: as §1

blackgrass = assay: Test B pre/postemergence blackgrass; format: in vivo, Alopecurus myosuroides
Procedure, shortened: as §1

corn = assay: Test B pre/postemergence corn; format: in vivo, Zea mays
Procedure, shortened: as §1

bedstraw = assay: Test B pre/postemergence bedstraw; format: in vivo, Galium aparine; conditions: Preemergence
Procedure, shortened: as §1

pigweed = assay: Test B pre/postemergence pigweed; format: in vivo, Amaranthus retroflexus; conditions: for Plant response rating, Redroot pigweed: Postemergence
Procedure, shortened: as §1

rape = assay: Test B pre/postemergence rape; format: in vivo, Brassica napus
Procedure, shortened: as §1

cocklebur = assay: Test B pre/postemergence cocklebur; format: in vivo, Xanthium strumarium
Procedure, shortened: as §1

crabgrass = assay: Test B pre/postemergence crabgrass; format: in vivo, Digitaria sanguinalis
Procedure, shortened: as §1

sugar beet = assay: Test B pre/postemergence sugar beet; format: in vivo, Beta vulgaris
Procedure, shortened: as §1

purple nutsedge = assay: Test B pre/postemergence purple nutsedge; format: in vivo, Cyperus rotundus
Procedure, shortened: as §1

surinam grass = assay: Test B pre/postemergence surinam grass; format: in vivo, Brachiaria decumbens
Procedure, shortened: as §1

wheat = assay: Test B pre/postemergence wheat; format: in vivo, Triticum aestivum; conditions: for Plant response rating, Wheat: Postemergence
Procedure, shortened: as §1

[1] = Rate 500 g/ha, scale of 0 to 10 where 0 is no effect and 10 is complete control
[2] = Preemergence, Rate 62 g/ha, scale 0 to 10 (0 no effect, 10 complete control)
[3] = Preemergence, Rate 125 g/ha, scale 0 to 10, 0 is no effect, 10 is complete control
[4] = Preemergence, Rate 500 g/ha, scale of 0 to 10 where 0 is no effect and 10 is complete control
[5] = Rate 250 g/ha, scale of 0 to 10 where 0 is no effect and 10 is complete control
[6] = Postemergence, Rate 62 g/ha, scale of 0 to 10, 0 is no effect, 10 is complete control
[7] = Postemergence, Rate 125 g/ha, scale 0 to 10, 0 is no effect, 10 is complete control
[8] = Postemergence, Rate 500 g/ha, scale of 0 to 10 where 0 is no effect and 10 is complete control
[9] = Rate 250 g/ha, Postemergence, scale of 0 to 10 where 0 is no effect and 10 is complete control

## CC(Cl)=CCn1c(=O)on(C(=O)N(c2ccccc2)C(C)C)c1=O [Compound 573]
soybean; [1]
  Plant response rating, Soybean: 6
soybean; [2]
  Soybean plant response rating: 0
soybean; [3]
  Soybean plant response rating: 0
soybean; Preemergence, Rate 250 g/ha
  Soybean plant response rating (0 to 10 scale): 0
soybean; [4]
  Soybean plant response rating: 0
soybean; [5]
  Plant response rating, Soybean: 4
Wild oat; [1]
  Plant response rating, Wild oats: 0
Wild oat; [2]
  Wild oats plant response rating: 0
Wild oat; [3]
  Wild oats plant response rating: 0
Wild oat; Preemergence, Rate 250 g/ha
  Wild oats plant response rating (0 to 10 scale): 0
Wild oat; [4]
  Wild oats plant response rating: 0
Wild oat; [5]
  Plant response rating, Wild oats: 0
morningglory; [6]
  Morningglory plant response rating: 10
morningglory; [7]
  Morningglory plant response rating: 10
morningglory; [8]
  Plant response rating, Morningglory: 10
morningglory; [2]
  Morningglory plant response rating: 0
morningglory; [3]
  Morningglory plant response rating: 0
morningglory; Preemergence, Rate 250 g/ha
  Morningglory plant response rating (0 to 10 scale): 0
morningglory; [4]
  Morningglory plant response rating: 4
morningglory; [9]
  Plant response rating, Morningglory: 10
Giant foxtail; [6]
  Giant foxtail plant response rating: 2
Giant foxtail; [7]
  Giant foxtail plant response rating: 3
Giant foxtail; [8]
  Plant response rating, Giant foxtail: 9
Giant foxtail; [2]
  Giant foxtail plant response rating: 9
Giant foxtail; [3]
  Giant foxtail plant response rating: 9
Giant foxtail; Preemergence, Rate 250 g/ha
  Giant foxtail plant response rating (0 to 10 scale): 9
Giant foxtail; [4]
  Giant foxtail plant response rating: 10
Giant foxtail; [9]
  Plant response rating, Giant foxtail: 9
velvetleaf; [1]
  Plant response rating, Velvetleaf: 2
velvetleaf; [2]
  Velvetleaf plant response rating: 0
velvetleaf; [3]
  Velvetleaf plant response rating: 0
velvetleaf; Preemergence, Rate 250 g/ha
  Velvetleaf plant response rating (0 to 10 scale): 0
velvetleaf; [4]
  Velvetleaf plant response rating: 3
velvetleaf; [5]
  Plant response rating, Velvetleaf: 0
blackgrass; [6]
  Blackgrass plant response rating: 0
blackgrass; [7]
  Blackgrass plant response rating: 0
blackgrass; [8]
  Plant response rating, Blackgrass: 0
blackgrass; [2]
  Blackgrass plant response rating: 0
blackgrass; [3]
  Blackgrass plant response rating: 0
blackgrass; Preemergence, Rate 250 g/ha
  Blackgrass plant response rating (0 to 10 scale): 2
blackgrass; [4]
  Blackgrass plant response rating: 6
blackgrass; [9]
  Plant response rating, Blackgrass: 0
corn; [6]
  Corn plant response rating: 0
corn; [7]
  Corn plant response rating: 0
corn; [8]
  Plant response rating, Corn: 0
corn; [2]
  Corn plant response rating: 0
corn; [3]
  Corn plant response rating: 0
corn; Preemergence, Rate 250 g/ha
  Corn plant response rating (0 to 10 scale): 0
corn; [4]
  Corn plant response rating: 3
corn; [9]
  Plant response rating, Corn: 0
bedstraw; Rate 62 g/ha, scale 0 to 10 (0 no effect, 10 complete control)
  Bedstraw plant response rating: 0
bedstraw; Rate 125 g/ha, scale 0 to 10, 0 is no effect, 10 is complete control
  Bedstraw plant response rating: 0
bedstraw; Rate 250 g/ha
  Bedstraw plant response rating (0 to 10 scale): 0
bedstraw; [1]
  Bedstraw plant response rating: 0
pigweed; [1]
  Plant response rating, Redroot pigweed: 7
pigweed; [2]
  Redroot pigweed plant response rating: 0
pigweed; [3]
  Redroot pigweed plant response rating: 0
pigweed; Preemergence, Rate 250 g/ha
  Redroot pigweed plant response rating (0 to 10 scale): 9
pigweed; [4]
  Redroot pigweed plant response rating: 9
pigweed; [5]
  Plant response rating, Redroot pigweed: 4
rape; [6]
  Rape plant response rating: 0
rape; [7]
  Rape plant response rating: 2
rape; [8]
  Plant response rating, Rape: 2
rape; [2]
  Rape plant response rating: 2
rape; [3]
  Rape plant response rating: 2
rape; Preemergence, Rate 250 g/ha
  Rape plant response rating (0 to 10 scale): 3
rape; [4]
  Rape plant response rating: 3
rape; [9]
  Plant response rating, Rape: 3
cocklebur; [6]
  Cocklebur plant response rating: 0
cocklebur; [7]
  Cocklebur plant response rating: 0
cocklebur; [8]
  Plant response rating, Cocklebur: 3
cocklebur; [2]
  Cocklebur plant response rating: 0
cocklebur; [3]
  Cocklebur plant response rating: 0
cocklebur; Preemergence, Rate 250 g/ha
  Cocklebur plant response rating (0 to 10 scale): 0
cocklebur; [4]
  Cocklebur plant response rating: 0
cocklebur; [9]
  Plant response rating, Cocklebur: 2
crabgrass; [6]
  Crabgrass plant response rating: 6
crabgrass; [7]
  Crabgrass plant response rating: 9
crabgrass; [8]
  Plant response rating, Crabgrass: 9
crabgrass; [2]
  Crabgrass plant response rating: 3
crabgrass; [3]
  Crabgrass plant response rating: 9
crabgrass; Preemergence, Rate 250 g/ha
  Crabgrass plant response rating (0 to 10 scale): 9
crabgrass; [4]
  Crabgrass plant response rating: 10
crabgrass; [9]
  Plant response rating, Crabgrass: 9
Sugar beet; [2]
  Sugarbeets plant response rating: 0
Sugar beet; [3]
  Sugarbeets plant response rating: 2
Sugar beet; Preemergence, Rate 250 g/ha
  Sugarbeets plant response rating (0 to 10 scale): 2
Sugar beet; [4]
  Sugarbeets plant response rating: 2
Sugar beet; [9]
  Plant response rating, Sugarbeets: 0
Purple nutsedge; [6]
  Nutsedge plant response rating: 0
Purple nutsedge; [7]
  Nutsedge plant response rating: 0
Purple nutsedge; [2]
  Nutsedge plant response rating: 0
Purple nutsedge; [3]
  Nutsedge plant response rating: 0
Purple nutsedge; Preemergence, Rate 250 g/ha
  Nutsedge plant response rating (0 to 10 scale): 0
Purple nutsedge; [4]
  Nutsedge plant response rating: 0
Purple nutsedge; [9]
  Plant response rating, Nutsedge: 0
Surinam grass; [6]
  B. signalgrass plant response rating: 0
Surinam grass; [7]
  B. signalgrass plant response rating: 0
Surinam grass; [8]
  Plant response rating, B. signalgrass: 0
Surinam grass; [2]
  B. signalgrass plant response rating: 7
Surinam grass; [3]
  B. signalgrass plant response rating: 7
Surinam grass; Preemergence, Rate 250 g/ha
  B. signalgrass plant response rating (0 to 10 scale, 0 is no effect, 10 is complete control): 9
Surinam grass; [4]
  B. signalgrass plant response rating: 10
Surinam grass; [9]
  Plant response rating, B. signalgrass: 0
wheat; [1]
  Plant response rating, Wheat: 0
wheat; [2]
  Wheat plant response rating: 0
wheat; [3]
  Wheat plant response rating: 0
wheat; Preemergence, Rate 250 g/ha
  Wheat plant response rating (0 to 10 scale): 0
wheat; [4]
  Wheat plant response rating: 0
wheat; [5]
  Plant response rating, Wheat: 0
